Literature values in patent publication US20080226713A1, “Controlled Release Pharmaceutical Compositions of Tolperisone for Oral Administration” (priority 2004, published 2008).
Where two headings read alike, the source gives them in different places.

Tests used:
[1] = JP-A-53-40779
[2] = rat

| Structure (SMILES) | pharmacological effect ([1]; listed as R-tolperisone) | extent of in-vivo inversion into the other enantiomer [2] | pharmacological effect ([1]; listed as S-tolperisone) |
| --- | --- | --- | --- |
| Cc1ccc(C(=O)C(C)CN2CCCCC2)cc1 (stereo not drawn) [R(−)tolperisone] | muscle-relaxing effect | – | – |
| Cc1ccc(C(=O)C(C)CN2CCCCC2)cc1 (stereo not drawn) [S(+)tolperisone] | – | up to 20% | vaso- or bronchodilatory effect |
